What was measured:
[1] = Absorbance of Malachite Green dilutions in PBS at 617 nm; assay type: physicochemical; details: 1 cm path
Procedure: Malachite Green is dissolved in a phosphate-buffered saline (hereinafter referred to as “PBS”) to prepare a series of dilutions in the concentration range of 4-4,000 nM.
Absorbance at a wavelength of 617 nm in these dilutions is measured with a Hitachi Model 557 two wavelength spectrophotometer using a quartz cell with a 1 cm optical path length and PBS as the reference (See Table 1), and a concentration—absorbance curve is prepared (See FIG. 6).

[2] = test system: IgG fraction derived from Guinea-pig 1; assay: Fluorescence of Malachite Green dilutions mixed with the IgG fraction; assay type: binding; details: IgG fraction 0.2 μM, excitation 617 nm
Procedure: A series of dilutions of Malachite Green in PBS solutions are prepared by adding to the solutions, the IgG fraction according to the invention which has been derived from Guinea-pig 1 in certain amounts (with the final concentration being 0.2 μM), and by adjusting concentrations of the dye within the range of 0-12 nM.
Fluorescence of these dilutions is measured with a Hitachi Model 850 fluorescence spectrophotometer under the following conditions: in a quartz cell of optical path length of 1.0 cm at the excitation side; an excitation wavelength of 617 nm; an emission wavelength of 650 nm; a band-pass width of 5 nm at both excitation and emission sides; High gain of a photomultiplier; a time constant of 1.5 sec; and a fluorescence integration time of 30 sec. Thus, a concentration-fluorescence intensity curve is prepared (See FIG. 5).
The fluorescence intensity is expressed as output values (i.e., arbitrary, relative units) of the fluorescence spectrophotometer.

anti-MG-KLH IgG [3] = assay: Differential fluorescence spectra of dye mixed with IgG fraction; assay type: binding, guinea-pig; details: for fluorescent ability upon mixing with anti-MG-KLH IgG: differential spectrum versus blank IgG
Description: Since the differential spectra can remove problematic noises in the fluorescence analysis such as the fluorescence of a cell itself and Raman scattering of a solvent, it becomes possible to obtain the fluorescence spectrum purely pertaining to a sample.

anti-MG-KLH IgG [4] = assay: Absorption spectra of dye mixed with IgG fraction; assay type: binding, guinea-pig
Procedure: Concentrations of the aforementioned IgG fraction and MG solution were adjusted by dilution such that the protein concentration as described above and MG concentration would finally be 2 μM and 4 μM, respectively. Further, employing γ globulin of a guinea-pig as the control against anti-MG-KLH IgG (i.e., blank IgG), the absorption spectrum of a mixture of the IgG fraction and the MG solution was measured (See FIG. 3).

CN(C)c1ccc(C(=C2C=CC(=[N+](C)C)C=C2)c2ccccc2)cc1 [Malachite Green]
Absorbance (617 nm) ([1]; 4 nM in PBS): 0 | Absorbance (617 nm) ([1]; 12 nM in PBS): 0 | Absorbance (617 nm) ([1]; 40 nM in PBS): 0.002 | Absorbance (617 nm) ([1]; 120 nM in PBS): 0.009 | Absorbance (617 nm) ([1]; 400 nM in PBS): 0.036 | Absorbance (617 nm) ([1]; 1200 nM in PBS): 0.132 | Absorbance (617 nm) ([1]; 4000 nM in PBS): 0.464 | Fluorescence intensity (650 nm) ([2]; 0.04 nM dye): 0.026 arbitrary, relative units | Fluorescence intensity (650 nm) ([2]; 0.12 nM dye): 0.034 arbitrary, relative units | Fluorescence intensity (650 nm) ([2]; 0.4 nM dye): 0.066 arbitrary, relative units | Fluorescence intensity (650 nm) ([2]; 1.2 nM dye): 0.18 arbitrary, relative units | Fluorescence intensity (650 nm) ([2]; 4 nM dye): 0.487 arbitrary, relative units | Fluorescence intensity (650 nm) ([2]; 12 nM dye): 1.22 arbitrary, relative units | increase of fluorescence quantum yield (anti-MG-KLH IgG [3]; by the treatment according to the invention): over 1,000 times | fluorescent ability upon mixing with anti-MG-KLH IgG (anti-MG-KLH IgG [3]): fluorescent | shift of wavelength of absorption maximum to longer wavelength relative to dye alone (anti-MG-KLH IgG [4]; IgG 2 μM, MG 4 μM): 6-7 nm

CN(C)c1ccc(C(=N)c2ccc(N(C)C)cc2)cc1.Cl [Auramine O]
fluorescent ability upon mixing with anti-MG-KLH IgG (anti-MG-KLH IgG [3]): manifests its fluorescent ability | change of absorption intensity in anti-MG-KLH IgG mixed solution (anti-MG-KLH IgG [4]): decline in the absorption intensity | shift of absorption spectrum in anti-MG-KLH IgG mixed solution (anti-MG-KLH IgG [4]): shift toward longer wavelengths
